pIC50: −log10 of the molar value.
Each compound was assayed against Glutamate carboxypeptidase 2 (Homo sapiens, UniProt Q04609).
Glutamate carboxypeptidase 2, sequence (Q04609 whole entry): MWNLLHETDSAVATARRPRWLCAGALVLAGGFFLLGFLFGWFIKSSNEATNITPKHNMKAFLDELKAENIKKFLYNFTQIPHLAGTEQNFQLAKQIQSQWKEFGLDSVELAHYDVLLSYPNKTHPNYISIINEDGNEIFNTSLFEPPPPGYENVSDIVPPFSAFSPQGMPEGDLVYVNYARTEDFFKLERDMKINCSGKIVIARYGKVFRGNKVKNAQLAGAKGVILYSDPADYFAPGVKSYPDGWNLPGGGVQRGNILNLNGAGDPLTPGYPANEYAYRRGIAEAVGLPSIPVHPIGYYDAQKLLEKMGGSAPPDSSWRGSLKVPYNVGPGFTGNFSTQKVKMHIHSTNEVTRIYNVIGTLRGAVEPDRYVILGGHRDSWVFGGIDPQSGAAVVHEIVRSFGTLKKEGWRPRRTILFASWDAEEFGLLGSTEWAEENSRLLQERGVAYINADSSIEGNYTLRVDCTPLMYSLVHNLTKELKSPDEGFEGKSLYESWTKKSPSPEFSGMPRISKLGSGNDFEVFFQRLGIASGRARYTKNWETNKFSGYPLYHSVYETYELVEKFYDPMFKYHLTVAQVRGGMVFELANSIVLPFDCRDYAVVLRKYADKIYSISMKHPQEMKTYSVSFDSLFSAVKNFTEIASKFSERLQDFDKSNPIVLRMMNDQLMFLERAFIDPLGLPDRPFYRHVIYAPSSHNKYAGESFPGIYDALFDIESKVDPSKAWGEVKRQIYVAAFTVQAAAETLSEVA
Description: Inhibition of human recombinant glutamate carboxypeptidase 2 by radioenzymatic assay

Row | Structure (SMILES) | pIC50
1 | N[C@@H](Cn1ccc(=O)[nH]c1=O)C(=O)O [(S)-WILLARDIINE] | 4.17
2 | N[C@@H](COP(=O)(O)O)C(=O)O [DEXFOSFOSERINE] | 3.28
3 | N[C@@H](CCC(=O)O)C(=O)O [GLUTAMIC ACID] | 3.37
4 | N[C@@H](Cn1oc(=O)[nH]c1=O)C(=O)O [QUISQUALATE] | 5.02
